Reference: patent US8399462B2, “JNK modulators” (Roche Palo Alto LLC, priority 2006, dated 2013)
Read-outs that look alike come from different tables or passages of the source.

What was measured:
[1] = target: Human JNK1α1 (Homo sapiens, UniProt P45983); assay: JNK assay in vitro (phosphorylation of GST-ATF2 with [γ-33P]ATP), JNK1; format: biochemical
Description: (§1) JNK activity was measured by phosphorylation of GST-ATF2 (19-96) with [γ-^33P] ATP. […] Human JNK2α2 assay contains 1 nM enzyme, 1 μM ATF2, 8 μM ATP with 1 μCi [γ-^33P] ATP. Human JNK1α1 assay contains 2 nM enzyme, 1 μM ATF2, 6 μM ATP with 1 μCi [γ-^33P] ATP. Human JNK3 (Upstate Biotech #14-501M) assay contains 2 nM enzyme, 1 μM ATF2, 4 μM ATP with 1 μCi [γ-33P] ATP. The enzyme assay was carried out in the presence or absence of several compound concentrations. JNK and compound were pre-incubated for 10 min., followed by initiation of the enzymatic reaction by adding ATP and the substrate. The reaction mixture was incubated at 30° C. for 30 min. At the end of incubation, the reaction was terminated by transferring 25 μl of the reaction mixture to 150 μl of 10% glutathione Sepharose® slurry (Amersham # 27-4574-01) containing 135 mM EDTA. The reaction product was captured on the affinity resin, and washed on a filtration plate (Millipore, MABVNOB50) with phosphate buffered saline for six times to remove free radionucleotide. The incorporation of ^33P into ATF2 was quantified on a microplate scintillation counter (Packard Topcount). Compound inhibition potency on JNK was measured by IC50 value generated from ten concentration inhibition curves fitted into the 3-parameter model: % inhibition=Maximum/(I+(IC50/[Inhibitor])^slope). Data were analyzed on Microsoft Excel for parameter estimation.

[2] = target: Human JNK2α2 (Homo sapiens, UniProt P45984); assay: JNK assay in vitro (phosphorylation of GST-ATF2 with [γ-33P]ATP), JNK2; format: biochemical
Human JNK2α2, sequence (P45984 whole entry): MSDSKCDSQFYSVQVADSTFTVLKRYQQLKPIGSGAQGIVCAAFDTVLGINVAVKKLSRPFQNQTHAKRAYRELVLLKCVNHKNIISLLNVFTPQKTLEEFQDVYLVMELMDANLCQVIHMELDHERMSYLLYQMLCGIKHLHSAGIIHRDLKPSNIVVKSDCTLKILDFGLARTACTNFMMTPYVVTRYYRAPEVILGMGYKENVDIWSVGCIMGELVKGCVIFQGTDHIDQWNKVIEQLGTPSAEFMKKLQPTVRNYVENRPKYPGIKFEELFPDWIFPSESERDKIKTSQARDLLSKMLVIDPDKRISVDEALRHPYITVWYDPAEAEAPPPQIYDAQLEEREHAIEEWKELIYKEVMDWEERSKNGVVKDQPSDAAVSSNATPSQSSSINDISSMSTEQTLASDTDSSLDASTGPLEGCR
Description: as §1

[3] = system: c-jun; assay: c-jun of Table 2 (method not described); format: cell-based
[4] = system: inflammatory cell infiltration into BAL; assay: Ovalbumin-sensitized asthma model (inflammatory cell infiltration into BAL); format: in vivo, rat; conditions: 30 mg/kg
[5] = system: TNFα-induced IL-6 production; assay: Rat in vivo TNFα-induced IL-6 production assay; conditions: 1.5 h, oral gavage, 30 min before TNF-α i.p., blood 90 min after challenge
Description: Female Wistar-Han rats procured from Charles River Laboratories were allowed to acclimate for one week prior to use and achieve an approximate body weight of 95-130 g. Rats were administered test compound via oral gavage 30 min prior to an intraperitoneal challenge of 0.5 μg recombinant rat TNF-α (Biosource). Blood was collected via cardiocentesis 90 min after TNF-α challenge. Plasma was prepared using lithium heparin separation tubes (BD microtainer) and frozen at −80° C. until analyzed. IL-6 levels were determined using a rat specific IL-6 ELISA kit (Biosource).

[6] = system: inflammatory cell infiltration into BAL; assay: Ovalbumin-sensitized asthma model (inflammatory cell infiltration into BAL); format: in vivo, rat
Description: (A) Male Brown-Norway rats are sensitized i.p. with 100 μg of OA (ovalbumin) in 0.2 ml alum once every week for three weeks (day 0, 7, and 14). The week following the last sensitization, the rats are ready for testing. One to 2 days prior to challenge, animals are weighed. On day 21, the rats are dosed q.d. with either vehicle or compound formulation subcutaneously 30 minutes before OA aerosol challenge (1% OA for 45 minutes) and terminated 4 or 24 hours after challenge. At time of sacrifice, rats are anesthetized (urethane, approx. 2 g/kg, i.p.). Plasma is collected from rats for PK at termination. Blood is drawn from the abdominal aorta at termination. A tracheal cannula is inserted and the lungs are lavaged with 3×3 ml PBS. The BAL fluid is analyzed for total leukocyte number and differential leukocyte counts. Total leukocyte number in an aliquot of the cells (20-100 μl) is determined using a Coulter Counter. For differential leukocyte counts, 50-200 μl of the sample is centrifuged in a Cytospin and the slide stained with Diff-Quik. The proportions of monocytes, eosinophils, neutrophils and lymphocytes are counted under light microscopy using standard morphological criteria and expressed as a percentage. The remaining BAL fluid is centrifuged (1500 rpm, 10 min) and the supernatant is stored at −80° C. Lungs are also harvested for protein and/or RNA analyses.

Human JNK1α1, sequence (P45983 1-384 isoform P45983-2): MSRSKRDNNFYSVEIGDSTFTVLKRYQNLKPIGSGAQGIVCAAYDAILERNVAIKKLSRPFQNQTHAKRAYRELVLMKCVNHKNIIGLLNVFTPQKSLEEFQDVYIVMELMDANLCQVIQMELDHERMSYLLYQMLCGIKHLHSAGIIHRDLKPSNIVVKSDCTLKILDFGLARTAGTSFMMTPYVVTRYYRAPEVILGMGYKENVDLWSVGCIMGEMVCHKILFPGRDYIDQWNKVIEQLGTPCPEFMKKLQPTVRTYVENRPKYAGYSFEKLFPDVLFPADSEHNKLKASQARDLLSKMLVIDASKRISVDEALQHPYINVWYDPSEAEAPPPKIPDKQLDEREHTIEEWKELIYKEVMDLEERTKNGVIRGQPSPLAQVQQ

With `CCC(CO)NC(=O)[C@H]1CC[C@H](Nc2nccc(-n3ncc4ccccc43)n2)CC1` (stereo partly shown) [Compound 15] the IC50 [1] was 67.8 nM, the IC50 [2] was 458 nM and the IC50 [3] was 1290 nM.
With `CC(C)(O)[C@H]1CC[C@H](Nc2nccc(-n3ncc4c(OCCCS(C)(=O)=O)cccc43)n2)CC1` [Compound 157, 2-(4-{4-[4-(3-methane-sulfonyl-propoxy)-indazol-1-yl]-pyrimidin-2-ylamino}-cyclohexyl)-propan-2-ol] the Eosinophils % inhibition [4] was 22.6%, the “Eosinophils count in BAL” value [4] was 0.24 ± 0.05 × 10^5 per mL and the Neutrophils % inhibition [4] was 70.6%. For the same molecule, the “Neutrophils count in BAL” value [4] was 0.47 ± 0.12 × 10^5 per mL, the “Total cells count in BAL” value [4] was 2.46 ± 0.18 × 10^5 per mL and the inhibition in vivo at 10 mg/kg [5] was 52.5%. The Eosinophils % inhibition ([6]; 10 mg/kg) was 6.5%, the “Eosinophils count in BAL” value ([6]; 10 mg/kg) was 0.29 ± 0.09 × 10^5 per mL and the Neutrophils % inhibition ([6]; 10 mg/kg) was 41.3%. For the same molecule, the “Neutrophils count in BAL” value ([6]; 10 mg/kg) was 0.94 ± 0.10 × 10^5 per mL, the “Total cells % inhibition” value ([6]; 10 mg/kg) was 3.3% and the “Total cells count in BAL” value ([6]; 10 mg/kg) was 2.67 ± 0.13 × 10^5 per mL. The “Total cells % inhibition” value ([6]; 30 mg/kg) was 10.9%.
In the case of `CC(C)(O)c1cccc2c1ccn2-c1ccnc(N[C@H]2CC[C@H](O)CC2)n1` [Compound 18, 4-[4-(4-(2-hydroxyprop-2-yl)-indol-1-yl)-pyrimidin-2-ylamino]-cyclohexanol], the IC50 [1] is reported as 73.5 nM, the IC50 [2] is reported as 337 nM and the IC50 [3] is reported as 1950 nM.
With `CS(=O)(=O)CCCOc1cccc2c1ccn2-c1ccnc(N[C@H]2CC[C@H](C(=O)N3CCC(N)CC3)CC2)n1.Cl` [Compound 233, (4-amino-piperidin-1-yl)-(4-{4-[4-(3-methane-sulfonyl-propoxy)-indol-1-yl]-pyrimidin-2-ylamino}-cyclohexyl)-methanone] the melting point was 247 to 248 °C and the inhibition in vivo at 20 mg/kg [5] was 57.8%.
In the case of `CS(=O)(=O)CCCOc1cccc2c1cnn2-c1ccnc(N[C@H]2CC[C@H](NC(=O)CN3CCOCC3)CC2)n1` [Compound 159, N-(4-{4-[4-(3-methane-sulfonyl-propoxy)-indazol-1-yl]-pyrimidin-2-ylamino}-cyclohexyl)-2-morpholin-4-yl-acetamide], the melting point is reported as 219.2 to 221.1 °C and the inhibition in vivo at 10 mg/kg [5] is reported as 57.6%.
`CC(C)C(=O)Nc1cccc2c1ccn2-c1ccnc(N[C@H]2CC[C@H](O)CC2)n1` [Compound 88, N-(1-[2-(4-hydroxy-cyclohexylamino)-pyrimidin-4-yl]-1H-indol-4-yl)-isobutyr-amide] gave an IC50 [1] of 70.9 nM, an IC50 [2] of 480 nM and a melting point of 211.8 to 212.6 °C.
For `C[C@@H]1C[C@H]2[C@@H]3CCC4=CC(=O)C=C[C@]4(C)[C@@]3(F)[C@@H](O)C[C@]2(C)[C@@]1(O)C(=O)CO` [Dexamethasone, dexamethasone, reference compound], the Eosinophils % inhibition ([6]; 10 mg/kg) was 41.9%, the “Eosinophils count in BAL” value ([6]; 10 mg/kg) was 0.18 ± 0.11 × 10^5 per mL and the Neutrophils % inhibition ([6]; 10 mg/kg) was 97.5%. The “Neutrophils count in BAL” value ([6]; 10 mg/kg) was 0.04 ± 0.01 × 10^5 per mL and the “Total cells % inhibition” value ([6]; 10 mg/kg) was 23.2%.
Work on `O=C(NCC(O)CO)[C@H]1CC[C@H](Nc2nccc(-n3ncc4ccccc43)n2)CC1` (stereo partly shown) [Compound 16] yielded an IC50 [1] of 70.8 nM, an IC50 [2] of 592 nM and an inhibition in vivo at 30 mg/kg [5] of 47.4%. It also gave an IC50 [3] of 4130 nM.
In the case of `CC(C)(O)[C@H]1CC[C@H](Nc2nccc(-n3ccc4c(OCCCS(C)(=O)=O)cccc43)n2)CC1` [Compound 166, 2-(4-{4-[4-(3-methanesulfonyl-propoxy)-indol-1-yl]-pyrimidin-2-ylamino}-cyclohexyl)-propan-2-ol], the inhibition in vivo at 10 mg/kg [5] is reported as 48.5% and the inhibition in vivo at 20 mg/kg [5] is reported as 75.2%.
Molecule `COc1cccc2c1cnn2-c1ccnc(N[C@H]2CC[C@H](O)CC2)n1` [Compound 86, 4-[4-(4-methoxyindazol-1-yl)-pyrimidin-2-yl-amino]-cyclohexanol] has an IC50 ([1]; Km concentrations of ATP and substrate, 6 μM ATP, 1 μM ATF2) of 22.8 nM and an IC50 ([2]; Km concentrations of ATP and substrate, 8 μM ATP, 1 μM ATF2) of 178 nM.
Molecule `CS(=O)(=O)CCCOc1cccc2c1ccn2-c1ccnc(N[C@H]2CC[C@H](C(=O)N3CC[C@H](O)C3)CC2)n1` [Compound 224, (3-hydroxy-pyrrolidin-1-yl)-(4-{4-[4-(3-methane-sulfonyl-propoxy)-indol-1-yl]-pyrimidin-2-ylamino}-cyclohexyl)-methanone] has an inhibition in vivo at 20 mg/kg [5] of 68.6%.
For `N#CCOc1cccc2c1cnn2-c1ccnc(N[C@H]2CC[C@H](O)CC2)n1` [Compound 87, (1-[2-(4-hydroxycyclo-hexylamino)-pyrimidin-4-yl]-1H-indazol-4-yl-oxy)acetonitrile], the IC50 [1] was 29.7 nM, the IC50 [2] was 191 nM and the inhibition in vivo at 10 mg/kg [5] was 64%. It also gave an IC50 [3] of 1710 nM.
Molecule `O=C(NC(CO)CO)[C@H]1CC[C@H](Nc2nccc(-n3ncc4ccccc43)n2)CC1` [Compound 26, 4-(4-indazol-1-yl-pyrimidin-2-ylamino)-cyclohexane carboxylic acid 1,3-dihydroxyprop-2-ylamide] has an IC50 [1] of 85 nM, an IC50 [2] of 695 nM and an inhibition in vivo at 30 mg/kg [5] of 59.6%. The IC50 [3] was 1890 nM.
`CS(=O)(=O)CCCOc1cccc2c1ccn2-c1ccnc(N[C@H]2CC[C@H](C(=O)N3CC[C@@H](O)C3)CC2)n1` [Compound 225, (3-hydroxy-pyrrolidin-1-yl)-(4-{4-[4-(3-methane-sulfonyl-propoxy)-indol-1-yl]-pyrimidin-2-ylamino}-cyclohexyl)-methanone] showed an inhibition in vivo at 20 mg/kg [5] of 50.9%.
In the case of `COc1cccc2c1c(C(N)=O)cn2-c1ccnc(N[C@H]2CC[C@H](N(C)S(C)(=O)=O)CC2)n1` [Compound 283, 1-{2-[4-(methane-sulfonyl-methylamino)-cyclohexylamino]-pyrimidin-4-yl}-4-methoxy-1H-indole-3-carboxylic acid amide], the melting point is reported as 285 to 287 °C.
In the case of `CS(=O)(=O)CCCOc1cccc2c1cnn2-c1ccnc(N[C@H]2CC[C@H](C(=O)c3ccccc3)CC2)n1` [Compound 255, (4-{4-[4-(3-methane-sulfonyl-propoxy)-indazol-1-yl]-pyrimidin-2-ylamino}-cyclohexyl)-phenyl-methanone], the melting point is reported as 174.5 to 175.5 °C.
For `c1ccc2c(c1)ccn2-c1ccnc(NC2CCCCC2)n1` [Compound 66, Cyclohexyl-(4-indol-1-ylpyrimidin-2-yl)amine], the melting point was 192.5 to 193 °C.
